From the supplement of paper PMC10307832

Experiments:
Test in all cases: relative viability (nuclei count vs DMSO), 5 days (fraction); higher = more cells survive
[1] = test system: NCI-H1355
Method in brief: (§1)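 Medians of duplicate plates are given as relative viability. That measure is the nuclei count in treated wells divided by the count in vehicle wells. Counts were taken on 4× images of lung cancer cell lines in 1536-well plates, 5 days after pin-tool dosing the day after seeding with one drug alone or a fixed anchor-drug dose plus five library-drug doses (not always all listed) in √10 steps.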

[2] = test system: NCI-H2085
Method in brief: as §1

[3] = test system: LCLC-103H
Method in brief: as §1

[4] = test system: LC-2-ad
Method in brief: as §1

[5] = test system: A-427
Method in brief: as §1

[6] = test system: SK-MES-1
Method in brief: as §1

[7] = test system: COR-L 105
Method in brief: as §1

[8] = test system: NCI-H441
Method in brief: as §1

[9] = test system: COR-L23
Method in brief: as §1

[10] = test system: NCI-H647
Method in brief: as §1

[11] = test system: NCI-H2342
Method in brief: as §1

[12] = test system: NCI-H1651
Method in brief: as §1

[13] = test system: 201T
Method in brief: as §1

[14] = test system: ChaGo-K-1
Method in brief: as §1

[15] = test system: NCI-H322M
Method in brief: as §1

[16] = test system: NCI-H1915
Method in brief: as §1

[17] = test system: NCI-H2126
Method in brief: as §1

[18] = test system: NCI-H23
Method in brief: as §1

[19] = test system: NCI-H1993
Method in brief: as §1

[20] = test system: H3255
Method in brief: as §1

[21] = test system: NCI-H2087
Method in brief: as §1

[22] = test system: NCI-H520
Method in brief: as §1

[23] = test system: RERF-LC-KJ
Method in brief: as §1

[24] = test system: HOP-62
Method in brief: as §1

SMILES: Nc1cccc2c1CN(C1CCC(=O)NC1=O)C2=O (stereo not drawn) [Lenalidomide] + Cc1nc(Nc2ncc(C(=O)Nc3c(C)cccc3Cl)s2)cc(N2CCN(CCO)CC2)n1 [Dasatinib] (partner 0.075 µM)
- relative viability ([1]; first compound 0.253 µM): 0.701
- relative viability ([1]; first compound 2.53 µM): 0.744
- relative viability ([1]; first compound 8 µM): 0.403
- relative viability ([2]; first compound 0.253 µM): 0.253
- relative viability ([2]; first compound 0.8 µM): 0.259
- relative viability ([2]; first compound 2.53 µM): 0.243
- relative viability ([2]; first compound 8 µM): 0.214
- relative viability ([3]; first compound 0.253 µM): 0.442
- relative viability ([3]; first compound 0.8 µM): 0.325
- relative viability ([3]; first compound 2.53 µM): 0.453
- relative viability ([3]; first compound 8 µM): 0.296
- relative viability ([4]; first compound 0.253 µM): 0.49
- relative viability ([4]; first compound 2.53 µM): 0.727
- relative viability ([4]; first compound 8 µM): 0.395
- relative viability ([5]; first compound 0.253 µM): 0.58
- relative viability ([5]; first compound 0.8 µM): 0.851
- relative viability ([5]; first compound 2.53 µM): 0.752
- relative viability ([5]; first compound 8 µM): 0.644
- relative viability ([6]; first compound 0.253 µM): 0.421
- relative viability ([6]; first compound 0.8 µM): 0.422
- relative viability ([6]; first compound 2.53 µM): 0.499
- relative viability ([6]; first compound 8 µM): 0.413
- relative viability ([7]; first compound 0.253 µM): 0.433
- relative viability ([7]; first compound 0.8 µM): 0.331
- relative viability ([7]; first compound 2.53 µM): 0.427
- relative viability ([7]; first compound 8 µM): 0.371
- relative viability ([8]; first compound 0.253 µM): 0.67
- relative viability ([8]; first compound 0.8 µM): 0.518
- relative viability ([8]; first compound 2.53 µM): 0.648
- relative viability ([8]; first compound 8 µM): 0.493
- relative viability ([9]; first compound 0.253 µM): 0.541
- relative viability ([9]; first compound 0.8 µM): 0.507
- relative viability ([9]; first compound 2.53 µM): 0.63
- relative viability ([9]; first compound 8 µM): 0.569
- relative viability ([10]; first compound 0.253 µM): 0.14
- relative viability ([10]; first compound 0.8 µM): 0.176
- relative viability ([10]; first compound 2.53 µM): 0.319
- relative viability ([10]; first compound 8 µM): 0.129
- relative viability ([11]; first compound 0.253 µM): 0.312
- relative viability ([11]; first compound 0.8 µM): 0.305
- relative viability ([11]; first compound 2.53 µM): 0.322
- relative viability ([11]; first compound 8 µM): 0.3
- relative viability ([12]; first compound 0.253 µM): 0.386
- relative viability ([12]; first compound 0.8 µM): 0.419
- relative viability ([12]; first compound 2.53 µM): 0.617
- relative viability ([12]; first compound 8 µM): 0.375
- relative viability ([13]; first compound 0.253 µM): 0.598
- relative viability ([13]; first compound 2.53 µM): 0.581
- relative viability ([13]; first compound 8 µM): 0.538
- relative viability ([14]; first compound 0.253 µM): 0.565
- relative viability ([14]; first compound 0.8 µM): 0.495
- relative viability ([14]; first compound 2.53 µM): 0.677
- relative viability ([14]; first compound 8 µM): 0.595
- relative viability ([15]; first compound 0.253 µM): 0.262
- relative viability ([15]; first compound 0.8 µM): 0.279
- relative viability ([15]; first compound 2.53 µM): 0.254
- relative viability ([15]; first compound 8 µM): 0.253
- relative viability ([16]; first compound 0.253 µM): 0.321
- relative viability ([16]; first compound 0.8 µM): 0.329
- relative viability ([16]; first compound 2.53 µM): 0.301
- relative viability ([16]; first compound 8 µM): 0.245
- relative viability ([17]; first compound 0.253 µM): 0.661
- relative viability ([17]; first compound 0.8 µM): 0.559
- relative viability ([17]; first compound 2.53 µM): 0.678
- relative viability ([17]; first compound 8 µM): 0.479
- relative viability ([18]; first compound 0.253 µM): 0.857
- relative viability ([18]; first compound 0.8 µM): 0.543
- relative viability ([18]; first compound 2.53 µM): 0.97
- relative viability ([18]; first compound 8 µM): 0.687
- relative viability ([19]; first compound 0.253 µM): 0.498
- relative viability ([19]; first compound 0.8 µM): 0.583
- relative viability ([19]; first compound 2.53 µM): 0.609
- relative viability ([19]; first compound 8 µM): 0.443
- relative viability ([20]; first compound 0.253 µM): 0.365
- relative viability ([20]; first compound 0.8 µM): 0.32
- relative viability ([20]; first compound 2.53 µM): 0.34
- relative viability ([20]; first compound 8 µM): 0.301
- relative viability ([21]; first compound 0.253 µM): 0.865
- relative viability ([21]; first compound 0.8 µM): 0.851
- relative viability ([21]; first compound 2.53 µM): 0.928
- relative viability ([21]; first compound 8 µM): 0.829
- relative viability ([22]; first compound 0.253 µM): 0.188
- relative viability ([22]; first compound 0.8 µM): 0.192
- relative viability ([22]; first compound 2.53 µM): 0.235
- relative viability ([22]; first compound 8 µM): 0.159
- relative viability ([23]; first compound 0.253 µM): 0.777
- relative viability ([23]; first compound 0.8 µM): 0.746
- relative viability ([23]; first compound 2.53 µM): 0.828
- relative viability ([23]; first compound 8 µM): 0.793
- relative viability ([24]; first compound 0.253 µM): 0.67
- relative viability ([24]; first compound 0.8 µM): 0.615
- relative viability ([24]; first compound 2.53 µM): 0.79
- relative viability ([24]; first compound 8 µM): 0.583
